Measured values as given in patent publication US12264156B2, “Compounds and pharmaceutical compositions thereof for the treatment of diseases” (GALAPAGOS NV, priority 2018, dated 2025).

Columns and labels:
Type in all cases: biochemical
Settings in all cases: ADP-Glo SIK kinase assay
SIK1 = biological target: T1, SIK1 (Homo sapiens, UniProt P57059); assay: ADP-Glo kinase assay, SIK1
T1 construct: purchased Carna Biosciences 02-131
Summary of the method: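 Enzyme–substrate mix was started with ATP and incubated 120 min at RT. ADP formed was quantified by ADP-Glo: 40 min ATP depletion, then 30 min detection reagent converting ADP to ATP for luciferase luminescence, which rises with kinase activity. Controls: 1% DMSO and 10 μM staurosporine (final).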

SIK3 = biological target: T2, SIK3 (Homo sapiens, UniProt Q9Y2K2); assay: ADP-Glo kinase assay, SIK3
T2 construct: purchased SignalChem S12-11G-100
Summary of the method: (§1)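 Kinase reactions (enzyme-substrate mix plus ATP) ran 120 min at room temperature for each of SIK3 and SIK2. Signal came from ADP-Glo: unconsumed ATP removed (40 min), ADP reconverted and detected by luciferase/luciferin (30 min), with luminescence tracking kinase activity. 10 μM staurosporine and 1% DMSO (final) served as controls.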

SIK2 = biological target: T3, SIK2 (Homo sapiens, UniProt Q9H0K1); assay: ADP-Glo kinase assay, SIK2
T3 construct: purchased ThermoFisher Scientific PV4792
Summary of the method: as §1

T1 sequence (P57059 whole entry): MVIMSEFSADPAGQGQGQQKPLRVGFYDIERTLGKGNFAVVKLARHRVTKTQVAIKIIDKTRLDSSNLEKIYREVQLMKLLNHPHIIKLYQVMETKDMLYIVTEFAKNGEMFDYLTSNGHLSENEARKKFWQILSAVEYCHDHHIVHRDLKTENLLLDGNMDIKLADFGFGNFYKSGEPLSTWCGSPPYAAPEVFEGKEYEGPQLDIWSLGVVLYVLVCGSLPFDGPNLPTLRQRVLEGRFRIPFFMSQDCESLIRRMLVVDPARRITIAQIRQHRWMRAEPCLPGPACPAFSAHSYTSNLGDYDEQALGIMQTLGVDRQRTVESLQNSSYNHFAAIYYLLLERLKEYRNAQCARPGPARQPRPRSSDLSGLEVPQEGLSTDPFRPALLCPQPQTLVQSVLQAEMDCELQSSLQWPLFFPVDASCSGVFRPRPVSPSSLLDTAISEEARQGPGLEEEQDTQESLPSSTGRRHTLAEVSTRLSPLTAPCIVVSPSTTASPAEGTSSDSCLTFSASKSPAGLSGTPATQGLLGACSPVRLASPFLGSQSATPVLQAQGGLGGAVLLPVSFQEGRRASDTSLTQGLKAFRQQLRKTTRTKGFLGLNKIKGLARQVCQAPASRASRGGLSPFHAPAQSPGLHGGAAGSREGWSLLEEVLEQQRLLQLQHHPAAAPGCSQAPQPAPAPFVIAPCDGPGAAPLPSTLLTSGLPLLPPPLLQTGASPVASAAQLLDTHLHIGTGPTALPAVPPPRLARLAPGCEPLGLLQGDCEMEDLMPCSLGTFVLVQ
T3 sequence (Q9H0K1 whole entry): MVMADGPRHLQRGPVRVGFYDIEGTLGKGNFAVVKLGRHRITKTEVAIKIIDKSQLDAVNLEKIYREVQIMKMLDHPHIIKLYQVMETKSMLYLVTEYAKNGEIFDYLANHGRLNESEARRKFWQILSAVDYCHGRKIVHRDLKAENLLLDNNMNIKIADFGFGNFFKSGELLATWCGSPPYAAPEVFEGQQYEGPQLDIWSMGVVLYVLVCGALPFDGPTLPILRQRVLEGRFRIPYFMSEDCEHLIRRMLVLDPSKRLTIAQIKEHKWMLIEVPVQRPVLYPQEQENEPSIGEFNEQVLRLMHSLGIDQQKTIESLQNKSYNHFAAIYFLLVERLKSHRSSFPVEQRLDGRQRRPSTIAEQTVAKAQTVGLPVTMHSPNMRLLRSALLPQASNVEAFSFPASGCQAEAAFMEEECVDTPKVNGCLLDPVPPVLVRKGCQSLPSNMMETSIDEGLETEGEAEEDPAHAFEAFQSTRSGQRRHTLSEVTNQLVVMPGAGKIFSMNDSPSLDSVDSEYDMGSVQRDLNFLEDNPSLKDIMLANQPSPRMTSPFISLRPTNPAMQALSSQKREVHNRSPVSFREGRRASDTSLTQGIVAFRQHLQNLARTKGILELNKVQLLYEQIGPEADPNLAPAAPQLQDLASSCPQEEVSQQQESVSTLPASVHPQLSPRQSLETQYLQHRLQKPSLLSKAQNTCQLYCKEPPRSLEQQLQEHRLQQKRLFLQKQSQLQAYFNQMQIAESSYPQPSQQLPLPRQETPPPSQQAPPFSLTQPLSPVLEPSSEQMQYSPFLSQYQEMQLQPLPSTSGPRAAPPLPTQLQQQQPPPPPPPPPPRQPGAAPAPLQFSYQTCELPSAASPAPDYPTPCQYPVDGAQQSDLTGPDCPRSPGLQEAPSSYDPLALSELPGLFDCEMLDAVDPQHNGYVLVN
T2 sequence (Q9Y2K2 whole entry): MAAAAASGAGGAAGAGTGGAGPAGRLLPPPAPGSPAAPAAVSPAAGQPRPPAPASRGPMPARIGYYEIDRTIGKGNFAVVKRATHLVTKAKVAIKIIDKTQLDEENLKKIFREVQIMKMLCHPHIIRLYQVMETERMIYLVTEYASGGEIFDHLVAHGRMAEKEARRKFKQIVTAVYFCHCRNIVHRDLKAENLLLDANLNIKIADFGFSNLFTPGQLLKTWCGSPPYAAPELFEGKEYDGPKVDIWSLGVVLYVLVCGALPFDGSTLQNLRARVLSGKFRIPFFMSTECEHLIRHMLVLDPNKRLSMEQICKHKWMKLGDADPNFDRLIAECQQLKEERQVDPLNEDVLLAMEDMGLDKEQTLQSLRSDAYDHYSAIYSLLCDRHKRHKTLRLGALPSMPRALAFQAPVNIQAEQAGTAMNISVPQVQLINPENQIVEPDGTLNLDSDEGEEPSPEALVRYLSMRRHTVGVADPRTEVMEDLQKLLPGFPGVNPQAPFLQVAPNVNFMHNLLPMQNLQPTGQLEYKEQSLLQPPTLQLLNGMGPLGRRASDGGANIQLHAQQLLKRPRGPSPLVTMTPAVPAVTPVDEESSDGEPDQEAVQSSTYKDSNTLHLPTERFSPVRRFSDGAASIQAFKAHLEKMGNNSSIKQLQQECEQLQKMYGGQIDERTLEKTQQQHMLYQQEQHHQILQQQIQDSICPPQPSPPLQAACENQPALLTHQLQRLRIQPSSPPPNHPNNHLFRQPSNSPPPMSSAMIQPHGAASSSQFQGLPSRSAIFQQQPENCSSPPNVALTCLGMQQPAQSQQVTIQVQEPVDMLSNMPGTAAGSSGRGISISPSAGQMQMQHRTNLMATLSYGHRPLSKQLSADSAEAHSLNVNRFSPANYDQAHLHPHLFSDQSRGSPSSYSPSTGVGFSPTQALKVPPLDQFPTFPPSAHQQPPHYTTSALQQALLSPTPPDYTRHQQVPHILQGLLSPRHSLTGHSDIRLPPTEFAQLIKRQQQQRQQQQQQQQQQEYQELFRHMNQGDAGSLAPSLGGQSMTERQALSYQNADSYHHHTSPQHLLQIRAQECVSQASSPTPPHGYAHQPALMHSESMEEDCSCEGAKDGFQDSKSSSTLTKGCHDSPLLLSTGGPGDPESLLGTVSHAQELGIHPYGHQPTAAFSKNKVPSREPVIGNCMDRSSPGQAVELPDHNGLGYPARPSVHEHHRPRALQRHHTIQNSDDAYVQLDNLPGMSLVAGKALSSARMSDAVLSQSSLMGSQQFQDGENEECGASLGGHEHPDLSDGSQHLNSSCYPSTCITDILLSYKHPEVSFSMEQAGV

SMILES	IC50 (SIK1) [nM]	IC50 (SIK3) [nM]	IC50 (SIK2) [nM]
COc1cc(-c2cnc3cc(OCC4CCCN4C(C)C)ccn23)cc(OC(F)F)c1C(=O)NC1CC1 (stereo not drawn) [compound 295, N-cyclopropyl-2-(difluoromethoxy)-4-[7-[(1-isopropylpyrrolidin-2-yl)methoxy]imidazo[1,2-a]pyridin-3-yl]-6-methoxy-benzamide]	100 to 500	0.01 to 10	0.01 to 10
COc1cc(-c2cnc3cc(OCCCN4CCn5cccc5C4)ccn23)cc(OC(F)F)c1C(=O)NC1CC1 [compound 310, N-cyclopropyl-2-(difluoromethoxy)-4-[7-[3-(3,4-dihydro-1H-pyrrolo[1,2-a]pyrazin-2-yl)propoxy]imidazo[1,2-a]pyridin-3-yl]-6-methoxy-benzamide]	10 to 100	0.01 to 10	0.01 to 10
COc1cc(-c2cnc3cc(OCCCN4CCc5ncccc5C4)ccn23)cc(OC(F)F)c1C(=O)NC1CC1 [compound 311, N-cyclopropyl-2-(difluoromethoxy)-4-[7-[3-(7,8-dihydro-5H-1,6-naphthyridin-6-yl)propoxy]imidazo[1,2-a]pyridin-3-yl]-6-methoxy-benzamide]	10 to 100	0.01 to 10	0.01 to 10
COc1cc(-c2cnc3cc(OCCCN4CCn5ccnc5C4)ccn23)cc(OC(F)F)c1C(=O)NC1CC1 [compound 312, N-cyclopropyl-2-(difluoromethoxy)-4-[7-[3-(6,8-dihydro-5H-imidazo[1,2-a]pyrazin-7-yl)propoxy]imidazo[1,2-a]pyridin-3-yl]-6-methoxy-benzamide]	10 to 100	0.01 to 10	0.01 to 10
COc1cc(-c2cnc3cc(OCCCN4CCn5ncnc5C4)ccn23)cc(OC(F)F)c1C(=O)NC1CC1 [compound 313, N-cyclopropyl-2-(difluoromethoxy)-4-[7-[3-(6,8-dihydro-5H-[1,2,4]triazolo[1,5-a]pyrazin-7-yl)propoxy]imidazo[1,2-a]pyridin-3-yl]-6-methoxy-benzamide]	10 to 100	0.01 to 10	0.01 to 10
COc1cc(-c2cnc3cc(OC[C@H]4CCN(C5COC5)C4)ccn23)cc(OC(F)F)c1C(=O)NC1CC1 [compound 317, N-cyclopropyl-2-(difluoromethoxy)-6-methoxy-4-[7-[[(3S)-1-(oxetan-3-yl)pyrrolidin-3-yl]methoxy]imidazo[1,2-a]pyridin-3-yl]benzamide]	10 to 100	0.01 to 10	0.01 to 10
COc1cc(-c2cnc3cc(OCCCN4CCc5nc(C)sc5C4)ccn23)cc(OC(F)F)c1C(=O)NC1CC1 [compound 320, N-cyclopropyl-2-(difluoromethoxy)-6-methoxy-4-[7-[3-(2-methyl-6,7-dihydro-4H-thiazolo[5,4-c]pyridin-5-yl)propoxy]imidazo[1,2-a]pyridin-3-yl]benzamide]	10 to 100	0.01 to 10	0.01 to 10
COc1cc(-c2cnc3cc(OCCCN4CCC(N(C)S(C)(=O)=O)CC4)ccn23)cc(OC(F)F)c1C(=O)NC1CC1 [compound 326, N-cyclopropyl-2-(difluoromethoxy)-6-methoxy-4-[7-[3-[4-[methyl(methylsulfonyl)amino]-1-piperidyl]propoxy]imidazo[1,2-a]pyridin-3-yl]benzamide]	10 to 100	0.01 to 10	0.01 to 10
COc1cc(-c2cnc3cc(OCCCN4CC5(CCS5(=O)=O)C4)ccn23)cc(OC(F)F)c1C(=O)NC1CC1 [compound 332, N-cyclopropyl-2-(difluoromethoxy)-4-[7-[3-(1,1-dioxo-1λ^6-thia-6-azaspiro[3.3]heptan-6-yl)propoxy]imidazo[1,2-a]pyridin-3-yl]-6-methoxy-benzamide]	10 to 100	0.01 to 10	0.01 to 10
COc1cc(-c2cnc3cc(OC[C@@H]4CCN(C5COC5)C4)ccn23)cc(OC(F)F)c1C(=O)NC1CC1 [compound 336, N-cyclopropyl-2-(difluoromethoxy)-6-methoxy-4-[7-[[(3R)-1-(oxetan-3-yl)pyrrolidin-3-yl]methoxy]imidazo[1,2-a]pyridin-3-yl]benzamide]	10 to 100	0.01 to 10	0.01 to 10
COc1cc(-c2cnc3cc(OC[C@@H]4CCCN(C5COC5)C4)ccn23)cc(OC(F)F)c1C(=O)NC1CC1 [compound 339, N-cyclopropyl-2-(difluoromethoxy)-6-methoxy-4-[7-[[(3R)-1-(oxetan-3-yl)-3-piperidyl]methoxy]imidazo[1,2-a]pyridin-3-yl]benzamide]	10 to 100	0.01 to 10	0.01 to 10
COc1cc(-c2cnc3cc(OCCCN4CCCC(C#N)C4)ccn23)cc(OC(F)F)c1C(=O)NC1CC1 (stereo not drawn) [compound 346, 4-[7-[3-(3-cyano-1-piperidyl)propoxy]imidazo [1,2-a]pyridin-3-yl]-N-cyclopropyl-2-(difluoromethoxy)-6-methoxy-benzamide]	10 to 100	0.01 to 10	0.01 to 10
COc1cc(-c2cnc3cc(OCCCN4CCC(S(C)(=O)=O)CC4)ccn23)cc(OC(F)F)c1C(=O)NC1CC1 [compound 347, N-cyclopropyl-2-(difluoromethoxy)-6-methoxy-4-[7-[3-(4-methylsulfonyl-1-piperidyl)propoxy]imidazo[1,2-a]pyridin-3-yl]benzamide]	10 to 100	0.01 to 10	0.01 to 10
COc1cc(-c2cnc3cc(OC[C@H]4CCN(CCC#N)C4)ccn23)cc(OC(F)F)c1C(=O)NC1CC1 [compound 350, 4-[7-[[(3S)-1-(2-cyanoethyl)pyrrolidin-3-yl]methoxy]imidazo[1,2-a]pyridin-3-yl]-N-cyclopropyl-2-(difluoromethoxy)-6-methoxy-benzamide]	10 to 100	0.01 to 10	0.01 to 10

The next lines start with the values.

IC50 (SIK1) [nM]	IC50 (SIK3) [nM]	IC50 (SIK2) [nM]	SMILES
10 to 100	0.01 to 10	10 to 100	COc1cc(-c2cnc3cc(OCC4CCCN4C4COC4)ccn23)cc(OC(F)F)c1C(=O)NC1CC1 (stereo not drawn) [compound 289, N-cyclopropyl-2-(difluoromethoxy)-6-methoxy-4-[7-[[1-(oxetan-3-yl)pyrrolidin-2-yl]methoxy]imidazo[1,2-a]pyridin-3-yl]benzamide]
10 to 100	0.01 to 10	0.01 to 10	COc1cc(-c2cnc3cc(OCCN4C(C)CCCC4C)ccn23)cc(OC(F)F)c1C(=O)NC1CC1 (stereo not drawn) [compound 294, N-cyclopropyl-2-(difluoromethoxy)-4-[7-[2-(2,6-dimethyl-1-piperidyl)ethoxy]imidazo [1,2-a]pyridin-3-yl]-6-methoxy-benzamide]
10 to 100	0.01 to 10	0.01 to 10	COc1cc(-c2cnc3cc(OCCCN4CCOCC45COC5)ccn23)cc(OC(F)F)c1C(=O)NC1CC1 [compound 296, N-cyclopropyl-2-(difluoromethoxy)-4-[7-[3-(2,8-dioxa-5-azaspiro[3.5]nonan-5-yl)propoxy]imidazo[1,2-a]pyridin-3-yl]-6-methoxy-benzamide]
10 to 100	0.01 to 10	0.01 to 10	COc1cc(-c2cnc3cc(OCCCN4CC5(CC(O)C5)C4)ccn23)cc(OC(F)F)c1C(=O)NC1CC1 [compound 297, N-cyclopropyl-2-(difluoromethoxy)-4-[7-[3-(6-hydroxy-2-azaspiro[3.3]heptan-2-yl)propoxy]imidazo[1,2-a]pyridin-3-yl]-6-methoxy-benzamide]
10 to 100	0.01 to 10	0.01 to 10	COc1cc(-c2cnc3cc(OCCCN4CCc5ncncc5C4)ccn23)cc(OC(F)F)c1C(=O)NC1CC1 [compound 304, N-cyclopropyl-2-(difluoromethoxy)-4-[7-[3-(7,8-dihydro-5H-pyrido[4,3-d]pyrimidin-6-yl)propoxy]imidazo[1,2-a]pyridin-3-yl]-6-methoxy-benzamide]
10 to 100	0.01 to 10	0.01 to 10	COc1cc(-c2cnc3cc(OCCOCCN4CCOCC4)ccn23)cc(OC(F)F)c1C(=O)NC1CC1 [compound 306, N-cyclopropyl-2-(difluoromethoxy)-6-methoxy-4-[7-[2-(2-morpholinoethoxy)ethoxy]imidazo[1,2-a]pyridin-3-yl]benzamide]
10 to 100	10 to 100	0.01 to 10	CCN(CC)CCOCCOc1ccn2c(-c3cc(OC)c(C(=O)NC4CC4)c(OC(F)F)c3)cnc2c1 [compound 307, N-cyclopropyl-4-[7-[2-[2-(diethylamino)ethoxy]ethoxy]imidazo[1,2-a]pyridin-3-yl]-2-(difluoromethoxy)-6-methoxy-benzamide]
10 to 100	0.01 to 10	0.01 to 10	COc1cc(-c2cnc3cc(OCCN4CCN(CCO)CC4)ccn23)cc(OC(F)F)c1C(=O)NC1CC1 [compound 308, N-cyclopropyl-2-(difluoromethoxy)-4-[7-[2-[4-(2-hydroxyethyl)piperazin-1-yl]ethoxy]imidazo[1,2-a]pyridin-3-yl]-6-methoxy-benzamide]
10 to 100	0.01 to 10	0.01 to 10	COc1cc(-c2cnc3cc(OCCCN4CCc5c(ncn5C)C4)ccn23)cc(OC(F)F)c1C(=O)NC1CC1 [compound 309, N-cyclopropyl-2-(difluoromethoxy)-6-methoxy-4-[7-[3-(1-methyl-6,7-dihydro-4H-imidazo[4,5-c]pyridin-5-yl)propoxy]imidazo[1,2-a]pyridin-3-yl]benzamide]
0.01 to 10	0.01 to 10	0.01 to 10	COc1cc(-c2cnc3cc(OC[C@H]4CCCN(C5COC5)C4)ccn23)cc(OC(F)F)c1C(=O)NC1CC1 [compound 318, N-cyclopropyl-2-(difluoromethoxy)-6-methoxy-4-[7-[[(3S)-1-(oxetan-3-yl)-3-piperidyl]methoxy]imidazo[1,2-a]pyridin-3-yl]benzamide]
